In brackets after ≈: the same amount, converted by molar mass. Where a SMILES comes first, the peptide text is derived from it.
Legend:
Assay type in all cases: cell-based
[1] = test system: MDA-MB-231 human breast adenocarcinoma cells; experiment: Cytotoxicity assay; conditions: 10 μmol/L peptide, 24 h, MTT assay, duplicate, normalized to PBS
[2] = test system: A431 human epidermoid carcinoma cells; experiment: Cytotoxicity assay; conditions: 10 μmol/L peptide, 24 h, MTT assay, duplicate, normalized to PBS
E. coli JJ2489 = conditions: JJ2489, 1 h
[3] = test system: Salmonella enterica serovar Enteritidis MH91989; conditions: serovar Enteritidis MH91989, 1 h
[4] = test system: Salmonella enterica serovar Tennessee; conditions: 1 h
[5] = test system: Salmonella enterica serovar Typhimurium ATCC SL1344; conditions: ATCC SL1344, 1 h
[6] = test system: Salmonella Infantis #129 B; conditions: 1 h
E. coli FVEC 638 = conditions: FVEC 638, 1 h
E. coli J2210 = conditions: J2210, 1 h
E. coli JW0013 = conditions: JW0013, 1 h
[7] = test system: Salmonella enterica serovar Newport; conditions: 1 h
E. coli FVEC 964 = conditions: FVEC 964, 1 h
E. coli PUTI 379 = conditions: PUTI 379, 1 h

Row | Compound | toxicity towards MDA-MB-231 [1] | toxicity to A431 cells [2] | MIC (E. coli JJ2489) [µmol/L] | MIC [3] [µmol/L] | MIC [4] [µmol/L] | MIC [5] [µmol/L] | MIC [6] [µmol/L] | MIC (E. coli FVEC 638) [µmol/L] | MIC (E. coli J2210) [µmol/L] | MIC (E. coli JW0013) [µmol/L] | MIC [7] [µmol/L] | MIC (E. coli FVEC 964) [µmol/L] | MIC (E. coli PUTI 379) [µmol/L]
1 | CC[C@H](C)[C@H](NC(=O)[C@@H]1CCCN1C(=O)[C@H](CCCNC(=N)N)NC(=O)[C@@H]1CCCN1C(=O)[C@@H]1CCCN1C(=O)[C@@H](NC(=O)[C@@H]1CCCN1C(=O)[C@H](CCCNC(=N)N)NC(=O)[C@@H]1CCCN1C(=O)[C@H](CC(C)C)NC(=O)[C@H](Cc1ccc(O)cc1)NC(=O)[C@H](CO)NC(=O)CNC(=O)[C@H](CCCCN)NC(=O)[C@H](CC(=O)O)NC(=O)[C@@H](N)C(C)C)[C@@H](C)O)C(=O)N[C@@H](Cc1ccc(O)cc1)C(=O)N[C@@H](CC(N)=O)C(=O)N[C@@H](CCCNC(=N)N)C(=O)N[C@@H](CC(N)=O)C(=O)O [Pyr_WT, reference compound] (H-VDKGSYLPRPTPPRPIYNRN-OH) | None of these PrAMPs exhibited any toxicity | no toxicity |  |  |  |  |  |  |  |  |  |  | 
2 | CC(C)C[C@H](NC(=O)[C@H](CCCNC(=N)N)NC(=O)[C@@H]1CCCN1C(=O)[C@H](Cc1c[nH]cn1)NC(=O)[C@@H]1CCCN1C(=O)[C@@H]1CCCN1C(=O)[C@H](CCCNC(=N)N)NC(=O)[C@@H]1CCCN1C(=O)[C@H](CCC(N)=O)NC(=O)[C@@H]1CCCN1C(=O)[C@H](CCCNC(=N)N)NC(=O)[C@H](Cc1ccc(O)cc1)NC(=O)[C@@H](NC(=O)[C@@H]1CCCN1C(=O)[C@H](CCCCN)NC(=O)[C@H](CC(N)=O)NC(=O)[C@H](CC(N)=O)NC(=O)CN)C(C)C)C(=O)O [Api_R4K/I8R] (H-GNNKPVYRPQPRPPHPRL-OH) |  |  | 0.034 ± 0.017 (≈ 0.0722 µg/mL) | 0.031 ± 0.014 (≈ 0.0658 µg/mL) | 0.024 ± 0.006 (≈ 0.051 µg/mL) | 0.034 ± 0.017 (≈ 0.0722 µg/mL) | 0.024 ± 0.006 (≈ 0.051 µg/mL) | 0.048 ± 0.011 (≈ 0.102 µg/mL) | 0.034 ± 0.017 (≈ 0.0722 µg/mL) | 0.012 ± 0.003 (≈ 0.0255 µg/mL) | 0.017 ± 0.009 (≈ 0.0361 µg/mL) | 0.048 ± 0.011 (≈ 0.102 µg/mL) | 0.048 ± 0.011 (≈ 0.102 µg/mL)
3 | CC[C@H](C)[C@H](NC(=O)[C@H](Cc1ccc(O)cc1)NC(=O)[C@@H](NC(=O)[C@@H]1CCCN1C(=O)[C@H](CCCNC(=N)N)NC(=O)[C@H](CC(N)=O)NC(=O)[C@H](CC(N)=O)NC(=O)CN)C(C)C)C(=O)N1CCC[C@H]1C(=O)N[C@@H](CCC(N)=O)C(=O)N1CCC[C@H]1C(=O)N[C@@H](CCCNC(=N)N)C(=O)N1CCC[C@H]1C(=O)N1CCC[C@H]1C(=O)N[C@@H](Cc1c[nH]cn1)C(=O)N1CCC[C@H]1C(=O)N[C@@H](CCCNC(=N)N)C(=O)N[C@@H](CC(C)C)C(=O)O [Api_WT, reference compound] (H-GNNRPVYIPQPRPPHPRL-OH) |  |  | 0.031 ± 0.014 (≈ 0.0654 µg/mL) | 0.048 ± 0.011 (≈ 0.101 µg/mL) | 0.048 ± 0.011 (≈ 0.101 µg/mL) | 0.048 ± 0.011 (≈ 0.101 µg/mL) | 0.048 ± 0.011 (≈ 0.101 µg/mL) | 0.048 ± 0.011 (≈ 0.101 µg/mL) | 0.048 ± 0.011 (≈ 0.101 µg/mL) | 0.024 ± 0.006 (≈ 0.0506 µg/mL) | 0.031 ± 0.014 (≈ 0.0654 µg/mL) | 0.048 ± 0.011 (≈ 0.101 µg/mL) | 0.048 ± 0.011 (≈ 0.101 µg/mL)
4 | CC(C)C[C@H](NC(=O)[C@H](CCCNC(=N)N)NC(=O)[C@@H]1CCCN1C(=O)[C@H](Cc1c[nH]cn1)NC(=O)[C@@H]1CCCN1C(=O)[C@@H]1CCCN1C(=O)[C@H](CCCNC(=N)N)NC(=O)[C@@H]1CCCN1C(=O)[C@H](CCC(N)=O)NC(=O)[C@@H]1CCCN1C(=O)[C@H](CCCCN)NC(=O)[C@H](Cc1ccc(O)cc1)NC(=O)[C@@H](NC(=O)[C@@H]1CCCN1C(=O)[C@H](CCCCN)NC(=O)[C@H](CC(N)=O)NC(=O)[C@H](CC(N)=O)NC(=O)CN)C(C)C)C(=O)O [Api_R4K/I8K] (H-GNNKPVYKPQPRPPHPRL-OH) |  |  | 0.031 ± 0.014 (≈ 0.065 µg/mL) | 0.031 ± 0.014 (≈ 0.065 µg/mL) | 0.024 ± 0.006 (≈ 0.0503 µg/mL) | 0.034 ± 0.017 (≈ 0.0712 µg/mL) | 0.024 ± 0.006 (≈ 0.0503 µg/mL) | 0.048 ± 0.011 (≈ 0.101 µg/mL) | 0.034 ± 0.017 (≈ 0.0712 µg/mL) | 0.012 ± 0.003 (≈ 0.0251 µg/mL) | 0.024 ± 0.006 (≈ 0.0503 µg/mL) | 0.048 ± 0.011 (≈ 0.101 µg/mL) | 0.048 ± 0.011 (≈ 0.101 µg/mL)
5 | CC[C@H](C)[C@H](NC(=O)[C@@H]1CCCN1C(=O)[C@H](CCCCN)NC(=O)[C@@H]1CCCN1C(=O)[C@@H]1CCCN1C(=O)[C@@H](NC(=O)[C@@H]1CCCN1C(=O)[C@H](CCCNC(=N)N)NC(=O)[C@@H]1CCCN1C(=O)[C@H](CCCNC(=N)N)NC(=O)[C@H](Cc1ccc(O)cc1)NC(=O)[C@H](CO)NC(=O)CNC(=O)[C@H](CCCCN)NC(=O)[C@H](CC(=O)O)NC(=O)[C@@H](N)C(C)C)[C@@H](C)O)C(=O)N[C@@H](Cc1ccc(O)cc1)C(=O)N[C@@H](CC(N)=O)C(=O)N[C@@H](CCCNC(=N)N)C(=O)N[C@@H](CC(N)=O)C(=O)O [Pyr_L7R/R14K] (H-VDKGSYRPRPTPPKPIYNRN-OH) | None of these PrAMPs exhibited any toxicity | no toxicity |  |  |  |  |  |  |  |  |  |  | 
